Test results taken from ChEMBL document CHEMBL1671637, “Development, stability, and molecular mechanisms of macrolide resistance in Campylobacter jejuni” (2008).
In brackets after ≈: the same amount, converted by molar mass. Activity calls are given as the source filed them. The calls are words filed in the database; no cut-off is given here.

What was measured:
[1] = tested on: Campylobacter jejuni; assay: Antimicrobial activity against Campylobacter jejuni DC2 infected in chicken assessed as microbial shedding level after compound administration through feed for 20 days; type: functional, organism-based
[2] = tested on: Campylobacter jejuni; assay: Antimicrobial activity against Campylobacter jejuni DC26 infected in chicken assessed as microbial shedding level after compound administration through feed for 20 days; type: functional, organism-based
[3] = tested on: Campylobacter jejuni; assay: Antimicrobial activity against Campylobacter jejuni DC2 infected in 15 days old chicken food on medicated food by agar dilution method; type: functional
[4] = tested on: Campylobacter jejuni; assay: Antimicrobial activity against Campylobacter jejuni DC26 infected in 15 days old chicken food on medicated food by agar dilution method; type: functional
[5] = tested on: Campylobacter jejuni; assay: Antimicrobial activity against Campylobacter jejuni DC2 infected in 15 days old chicken by agar dilution method; type: functional
[6] = tested on: Campylobacter jejuni; assay: Antimicrobial activity against Campylobacter jejuni DC2 infected in 3 days old chicken by agar dilution method; type: functional
[7] = tested on: Campylobacter jejuni; assay: Antimicrobial activity against Campylobacter jejuni DC6 infected in 3 days old chicken by agar dilution method; type: functional

Question: Which Activity [1] does the source give for `CC[C@H]1OC(=O)C[C@@H](O)[C@H](C)[C@@H](O[C@@H]2O[C@H](C)[C@@H](O[C@H]3C[C@@](C)(O)[C@@H](O)[C@H](C)O3)[C@H](N(C)C)[C@H]2O)[C@@H](CC=O)C[C@@H](C)C(=O)/C=C/C(C)=C/[C@@H]1CO[C@@H]1O[C@H](C)[C@@H](O)[C@@H](OC)[C@H]1OC` [TYLOSIN] here?
Answer: inactive

Question: And the Activity [2]?
Answer: inactive

Question: What about the MIC [3] of the same compound?
Answer: 64 µg/mL (≈ 69.9 µM)

Question: And the MIC [4]?
Answer: 128 µg/mL (≈ 140 µM)

Question: And the MIC [5]?
Answer: 64 µg/mL (≈ 69.9 µM)

Question: And the MIC [6]?
Answer: 64 µg/mL (≈ 69.9 µM)

Question: What about the MIC [7] of the same compound?
Answer: > 512 µg/mL
